The target of one assay is human MEK1 (Homo sapiens, UniProt Q02750). The assay is described as follows: MEK-1 Enzyme Assay (LANCE-HTRF). It is filed as biochemical. Conditions: 100 nM MEK1, 15 μM ATP, 300 nM ERK2, two hours; read-out: MEK inhibition. Here is the method:
Assay 1: MEK-1 Enzyme Assay (LANCE-HTRF)
The activity of the compounds of the present invitation may be determined by the following procedure; Inhibition of human MEK1 kinase activity was monitored with a homogenous, fluorescence based assay. The assay uses time resolved fluorescence resonance energy transfer to probe for phosphorylation of ERK1 by MEK1. The assay is carried out in low volume 96 well microtiterplates. […] After two hours, 5 nM Europium-anti-PY20 (Perkin Elmer) and 50 nM Anti-GST-Allophycocyanin (CisBio) in buffer containing 50 mM EDTA and 0.05% BSA are added and the reaction incubated for one hour in the dark. Time-resolved fluorescence is measured using a LJL-Analyst (Molecular Devices) with an excitation wavelength of 340 nm and an emission wavelength of 665 nm. The final concentration of DMSO is 2%.
For orientation: In TR-FRET formats the signal depends on donor and acceptor labels being close together.

Assay [1] concerns human pancreatic MiaPaCa-2 cells. The assay is described as follows: Tumor cell proliferation assay (ATP Lite), MiaPaCa-2. Type of assay: cell-based. The following applies: MIA PaCa-2, 96 h, 4 days. Here is the method:
(§1) Assay 2: Tumor Cell Proliferation Assays (ATP Lite)
(§2) Murine colon C26, human melanoma A375 and MeI5 or human pancreatic MiaPaCa-2 cells were plated in 96 well Corning white plates (1500 cells/well for C26, and 2000 cells/well for A375, and MiaPaCa-2) and cultured overnight at 37° C. in 5% CO2. Inhibitors were serially diluted in 100% DMSO and subsequently added to cells to reach a final concentration of 0.25% DMSO. The cells were incubated for 4 days in the presence of test compounds in cell growth media (DMEM with 10% fetal bovine serum, 2 mM glutamine for C26, and MiaPaCa-2, and RPMI with 10% fetal bovine serum, 2 mM glutamine for A375). Cell proliferation was quantitated using the ATP lite cell proliferation kit (Packard). Columns 4-6 show the concentration of compounds required to induce 50% cell death (IC50 in μM) of […]. With “+” meaning 3 μM<IC50≦10 μM and “++” IC50≦3 μM and “n.d.” means not determined. Few compounds were also tested on human melanoma cell MeI5.

For assay [2], the system named is human melanoma A375 cells. The assay is described as follows: Tumor cell proliferation assay (ATP Lite), A375. Type of assay: cell-based. Conditions: A-375, 96 h, 4 days. As for the experimental part: as §1, §2
The test system of the next assay is Murine colon C26 cells. The assay is described as follows: Tumor cell proliferation assay (ATP Lite), C26. It is filed as cell-based. Conditions: Mus musculus, 96 h, 4 days. As for the experimental part:
as §1, §2

SMILES strings stand for the structures. Some results are limits rather than exact numbers.

Sequence of human MEK1 (Q02750 whole entry): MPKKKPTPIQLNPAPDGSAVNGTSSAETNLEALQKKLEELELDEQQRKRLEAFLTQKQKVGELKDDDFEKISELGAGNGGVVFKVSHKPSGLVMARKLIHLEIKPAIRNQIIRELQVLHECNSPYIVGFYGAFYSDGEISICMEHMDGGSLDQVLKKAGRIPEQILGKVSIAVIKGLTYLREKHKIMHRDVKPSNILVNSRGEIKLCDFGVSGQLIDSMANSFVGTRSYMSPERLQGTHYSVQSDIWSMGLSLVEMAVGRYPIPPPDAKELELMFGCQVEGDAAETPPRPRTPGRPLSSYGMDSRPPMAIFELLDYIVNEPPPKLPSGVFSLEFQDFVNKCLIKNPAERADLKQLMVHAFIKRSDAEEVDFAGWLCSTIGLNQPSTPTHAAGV

For the compound `COC(=O)c1ccncc1Nc1ccc(I)cc1Cl` [Example 10, Methyl 3-[(2-chloro-4-iodophenyl)amino]isonicotinate], the IC50 at human MEK1 was less than 1000 nM; in assay [1] it was not above 3 µM; in assay [2], not above 3 µM; in the assay with Murine colon C26 cells it was 3 to 10 µM.

`O=C(NCCN1CCOCC1)c1cc(Br)ncc1Nc1ccc(I)cc1F` [Example 88, 2-Bromo-5-(2-fluoro-4-iodo-phenylamino)-N-(2-morpholin-4-yl-ethyl)-isonicotinamide]: the IC50 on human MEK1 is less than 1000 nM; in assay [1], 3 to 10 µM; in assay [2], 3 to 10 µM; in the assay with Murine colon C26 cells, 3 to 10 µM.

As for `O=C(NOC[C@H](O)CO)c1ccncc1Nc1ccc(I)cc1F` [Example 7, N-{[(2R)-2,3-dihydroxypropyl]oxy}-3-[(2-fluoro-4-iodophenyl)-amino]isonicotin-amide], the IC50 was less than 1000 nM at human MEK1, not above 3 µM in assay [1], not above 3 µM in assay [2] and not above 3 µM with Murine colon C26 cells.

In the case of `O=C(NOC[C@H](O)CO)c1ccncc1Nc1ccc(I)cc1` [Example 96, N-{[(2R)-2,3-dihydroxypropyl]oxy}-3-(4-iodophenylamino)-isonicotinamide], the IC50 on human MEK1 was less than 1000 nM; in assay [1] it was not above 3 µM; in assay [2], not above 3 µM; in the assay with Murine colon C26 cells, not above 3 µM.

For `COCCN(C)C(=O)c1ccncc1Nc1ccc(I)cc1F` [Example 24, 3-[(2-fluoro-4-iodophenyl)amino]-N-(2-methoxyethyl)-N-methyl-isonicotinamide], the IC50 on human MEK1 is less than 1000 nM; in assay [1], not above 3 µM; in assay [2], not above 3 µM; in the assay with Murine colon C26 cells it was not above 3 µM.

Turning to `O=C(NCCCO)c1cc(Br)ncc1Nc1ccc(I)cc1F` [Example 70, 2-Bromo-5-(2-fluoro-4-iodo-phenylamino)-N-(3-hydroxy-propyl)-isonicotinamide], the IC50 on human MEK1 was less than 1000 nM; in assay [1], not above 3 µM; in assay [2], not above 3 µM; in the assay with Murine colon C26 cells it was not above 3 µM.

In the case of `Cc1nccc(C(N)=O)c1Nc1ccc(I)cc1F` [Example 100, 3-(2-Fluoro-4-iodo-phenylamino)-2-methyl-isonicotinamide], the IC50 on human MEK1 is less than 1000 nM; in assay [1], 3 to 10 µM; in assay [2] it was not above 3 µM; in the assay with Murine colon C26 cells, 3 to 10 µM.

Consider `O=C(NNC(=O)c1n[nH]c2ccccc12)c1ccncc1Nc1ccc(I)cc1F` [Example 28, N′-{3-[(2-fluoro-4-iodophenyl)amino]isonicotinoyl}-1H-indazole-3-carbohydrazide], for which the IC50 at human MEK1 is less than 1000 nM; in assay [1], 3 to 10 µM; in assay [2], not above 3 µM; in the assay with Murine colon C26 cells, 3 to 10 µM.

As to `O=C(NCCCCl)c1ccncc1Nc1ccc(I)cc1F` [Example 79, N-(3-chloropropyl)-3-[(2-fluoro-4-iodophenyl)-amino]isonicotinamide], the IC50 was less than 1000 nM on human MEK1, not above 3 µM in assay [1], not above 3 µM in assay [2] and not above 3 µM with Murine colon C26 cells.

As for `CNC(=O)c1ccncc1Nc1ccc(I)cc1Cl` [Example 22, 3-[(2-chloro-4-iodophenyl)amino]-N-methylisonicotinamide], the IC50 is less than 1000 nM on human MEK1, not above 3 µM in assay [1], not above 3 µM in assay [2] and not above 3 µM in the assay on Murine colon C26 cells.

For `O=C(NCCN1CCCCC1)c1ccncc1Nc1ccc(I)cc1F` [Example 33, 3-[(2-fluoro-4-iodophenyl)amino]-N-(2-piperidin-1-ylethyl)-isonicotinamide], the IC50 on human MEK1 is less than 1000 nM; in assay [1], not above 3 µM; in assay [2], not above 3 µM; with Murine colon C26 cells, not above 3 µM.

On to `O=C(NNc1ccccc1)c1ccncc1Nc1ccc(I)cc1F` [Example 32, 3-[(2-fluoro-4-iodophenyl)amino]-N′-phenylisonicotinohydrazide], for which the IC50 at human MEK1 was less than 1000 nM; in assay [1], not above 3 µM; in assay [2], not above 3 µM; with Murine colon C26 cells, not above 3 µM.

Take `O=C(O)c1ccc(CNC(=O)c2ccncc2Nc2ccc(I)cc2F)cc1` [Example 46, 4-[({3-[(2-fluoro-4-iodophenyl)amino]isonicotinoyl}-amino)methyl]benzoic acid]: the IC50 on human MEK1 is less than 1000 nM; in assay [1], 3 to 10 µM; in assay [2], not above 3 µM; with Murine colon C26 cells, 3 to 10 µM.

As to `CC(C)(C)OC(=O)NC1CCN(C(=O)c2ccncc2Nc2ccc(I)cc2F)CC1` [Example 34, tert-butyl(1-{3-[(2-fluoro-4-iodophenyl)amino]isonicotinoyl}-piperidin-4-yl)carbamate], the IC50 at human MEK1 was less than 1000 nM; in assay [1] it was 3 to 10 µM; in assay [2], not above 3 µM; in the assay with Murine colon C26 cells, 3 to 10 µM.

Regarding `NC(=O)c1ccncc1Nc1ccc(I)cc1` [Example 67, 3-(4-iodo-phenylamino)-isonicotinamide], the IC50 at human MEK1 was less than 1000 nM; in assay [1] it was not above 3 µM; in assay [2], not above 3 µM; in the assay with Murine colon C26 cells, not above 3 µM.

Consider `O=C(O)CONC(=O)c1ccncc1Nc1ccc(I)cc1F` [Example 92, [({3-[(2-fluoro-4-iodophenyl)amino]isonicotinoyl}amino)oxy]acetic acid], for which the IC50 on human MEK1 is less than 1000 nM; in assay [1], 3 to 10 µM; in assay [2], not above 3 µM; in the assay on Murine colon C26 cells, 3 to 10 µM.

For `C[C@@H](O)CNC(=O)c1ccncc1Nc1ccc(I)cc1F` [Example 48, 3-[(2-fluoro-4-iodophenyl)amino]-N-[(2R)-2-hydroxypropyl]-isonicotinamide], the IC50 was less than 1000 nM on human MEK1, not above 3 µM in assay [1], not above 3 µM in assay [2] and not above 3 µM in the assay on Murine colon C26 cells.

Turning to `O=C(NCCCn1ccnc1)c1ccncc1Nc1ccc(I)cc1F` [Example 20, 3-[(2-fluoro-4-iodophenyl)amino]-N-[3-(1H-imidazol-1yl)propyl]-isonicotinamide], the IC50 on human MEK1 is less than 1000 nM; in assay [1], not above 3 µM; in assay [2], not above 3 µM; with Murine colon C26 cells it was not above 3 µM.

As to `C=CCONC(=O)c1ccncc1Nc1ccc(I)cc1Cl` [Example 77, N-allyloxy-3-(2-chloro-4-iodo-phenylamino)-isonicotinamide], the IC50 is less than 1000 nM at human MEK1, 3 to 10 µM in assay [1], not above 3 µM in assay [2] and 3 to 10 µM in the assay with Murine colon C26 cells.

For the compound `NC(=O)c1ccnc(Cl)c1Nc1ccc(I)cc1F` [Example 31, 2-Chloro-3-(2-fluoro-4-iodo-phenylamino)-isonicotinamide], the IC50 on human MEK1 was less than 1000 nM; in assay [1], not above 3 µM; in assay [2] it was not above 3 µM; with Murine colon C26 cells, not above 3 µM.

For `O=C(NCC1CC1)c1ccncc1Nc1ccc(I)cc1F` [Example 53, N-(cyclopropylmethyl)-3-[(2-fluoro-4-iodophenyl)amino]-isonicotinamide], the IC50 at human MEK1 was less than 1000 nM; in assay [1] it was not above 3 µM; in assay [2] it was not above 3 µM; in the assay on Murine colon C26 cells, not above 3 µM.

Regarding `O=C(NOC[C@@H](O)CO)c1ccncc1Nc1ccc(I)cc1F` [Example 75, N-{[(2S)-2,3-dihydroxypropyl]oxy}-3-[(2-fluoro-4-iodophenyl)-amino]isonicotin-amide], the IC50 on human MEK1 is less than 1000 nM; in assay [1] it was not above 3 µM; in assay [2], not above 3 µM; in the assay on Murine colon C26 cells, not above 3 µM.

For `O=C(NN1CCCCCC1)c1ccncc1Nc1ccc(I)cc1F` [Example 42, N-azepan-1-yl-3-[(2-fluoro-4-iodophenyl)amino]isonicotinamide], the IC50 is less than 1000 nM on human MEK1, 3 to 10 µM in assay [1], not above 3 µM in assay [2] and 3 to 10 µM with Murine colon C26 cells.

Regarding `O=C(NC1CCCC1)c1ccncc1Nc1ccc(I)cc1F` [Example 60, N-cyclopentyl-3-[(2-fluoro-4-iodophenyl)amino]isonicotinamide], the IC50 at human MEK1 was less than 1000 nM; in assay [1], not above 3 µM; in assay [2] it was not above 3 µM; in the assay with Murine colon C26 cells it was not above 3 µM.

As for `CN(C)C(=O)c1ccncc1Nc1ccc(I)cc1Cl` [Example 23, 3-[(2-chloro-4-iodophenyl)amino]-N-dimethylisonicotinamide], the IC50 at human MEK1 is less than 1000 nM; in assay [1] it was not above 3 µM; in assay [2], not above 3 µM; in the assay with Murine colon C26 cells it was not above 3 µM.

For `O=C(NCc1ccccc1)c1ccncc1Nc1ccc(I)cc1F` [Example 21, N-benzyl-3-[(2-fluoro-4-iodophenyl)amino]isonicotinamide], the IC50 on human MEK1 is less than 1000 nM; in assay [1] it was 3 to 10 µM; in assay [2] it was not above 3 µM; in the assay on Murine colon C26 cells, 3 to 10 µM.

These data come from patent publication US8524911B2, “3-arylamino pyridine derivatives” (Merck Serono SA, priority 2004, dated 2013).
